From patent US20240166609A1, “ANTIBACTERIAL COMPOUNDS” (BLACKSMITH MEDICINES, INC., priority 2021, published 2024)
Values after ≈ are worked out from the molar mass of the structure shown.

Legend:
P. aeruginosa LpxC = target: T1, P. aeruginosa LpxC (Pseudomonas aeruginosa, UniProt P47205); assay: LpxC Binding Assay (Rapid Fire MS assay); type: biochemical
T1 sequence (P47205 1-303): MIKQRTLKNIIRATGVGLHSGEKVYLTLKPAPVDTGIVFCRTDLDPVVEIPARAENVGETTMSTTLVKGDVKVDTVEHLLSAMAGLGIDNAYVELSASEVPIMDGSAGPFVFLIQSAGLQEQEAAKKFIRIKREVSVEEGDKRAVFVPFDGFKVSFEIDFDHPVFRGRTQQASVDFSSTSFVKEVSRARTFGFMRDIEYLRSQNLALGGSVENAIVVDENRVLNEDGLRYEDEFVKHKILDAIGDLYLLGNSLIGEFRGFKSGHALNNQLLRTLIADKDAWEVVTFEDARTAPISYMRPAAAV
Experimental: (§1) IC50 values against E. coli and P. aeruginosa LpxC are determined using a Rapid Fire MS assay as previously described J. Med. Chem. 2012, 55, 1662-1670.

E. coli LpxC = target: T2, E. coli LpxC (Escherichia coli, UniProt P0A725); assay: LpxC Binding Assay (Rapid Fire MS assay); type: biochemical
T2 sequence (P0A725 1-305): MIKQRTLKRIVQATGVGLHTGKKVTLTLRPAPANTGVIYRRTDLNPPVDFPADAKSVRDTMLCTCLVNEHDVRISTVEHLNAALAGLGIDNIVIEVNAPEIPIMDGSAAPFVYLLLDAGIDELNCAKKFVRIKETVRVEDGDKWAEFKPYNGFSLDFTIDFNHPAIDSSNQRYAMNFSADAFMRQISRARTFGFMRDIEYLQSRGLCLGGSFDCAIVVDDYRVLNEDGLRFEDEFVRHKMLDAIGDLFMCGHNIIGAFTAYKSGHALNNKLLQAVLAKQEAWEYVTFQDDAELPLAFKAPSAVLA
Experimental: as §1

K. pneumoniae LpxC = K. pneumoniae LpxC (Klebsiella pneumoniae subsp. pneumoniae, UniProt A6T4N9); assay: LpxC Binding Assay (Rapid Fire MS assay); type: biochemical
Chain of K. pneumoniae LpxC (A6T4N9 whole entry): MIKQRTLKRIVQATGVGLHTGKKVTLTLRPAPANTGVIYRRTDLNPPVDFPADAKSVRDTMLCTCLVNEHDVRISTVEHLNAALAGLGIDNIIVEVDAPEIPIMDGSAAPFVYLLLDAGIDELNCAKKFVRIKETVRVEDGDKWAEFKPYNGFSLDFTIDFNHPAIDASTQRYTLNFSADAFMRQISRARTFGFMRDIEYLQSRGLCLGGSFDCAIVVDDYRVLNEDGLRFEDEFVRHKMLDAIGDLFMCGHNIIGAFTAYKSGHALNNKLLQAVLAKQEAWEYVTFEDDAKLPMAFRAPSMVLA

P. aeruginosa ATCC27835 = assay: Bacterial susceptibility testing, MIC by broth microdilution (CLSI); type: cell-based; conditions: Pseudomonas aeruginosa, 35° C., 18-24 h, read-out: MIC (μg/mL) P. aeruginosa ATCC27835
Experimental: (§2) Minimal inhibitory concentrations (MIC) were determined by the broth microdilution method in accordance with the Clinical and Laboratory Standards Institute (CLSI) guidelines. In brief, organism suspensions were adjusted to a final inoculum between 3×10^5 and 7×10^5 colony-forming units (CFU)/mL. Drug dilutions and inocula were made in sterile, cation adjusted Mueller-Hinton Broth (Beckton Dickinson). In wells, an inoculum volume of 100 μL was mixed to 2 μL of DMSO with 2-fold serial dilutions of drug. All inoculated microdilution trays were incubated in ambient air at 35° C. for 18-24 h. Following incubation, the lowest concentration of the drug that prevented visible growth (OD600 nm<0.05) was recorded as the MIC. Performance of the assay was monitored by the use of laboratory quality-control strains and compounds with defined MIC spectrum, in accordance with CLSI guidelines

E. coli ATCC25922 = assay: as above; type: cell-based; conditions: Escherichia coli, 35° C., 18-24 h, read-out: MIC (μg/mL) E. coli ATCC25922
Experimental: as §2

P. aeruginosa 209 PAO1 = assay: as above; type: cell-based; conditions: Pseudomonas aeruginosa, 35° C., 18-24 h, read-out: MIC (μg/mL) P. aeruginosa 209 PAO1
Experimental: as §2

K. pneumoniae ATCC13883 = assay: as above; type: cell-based; conditions: Klebsiella pneumoniae, 35° C., 18-24 h, read-out: MIC (μg/mL) K. pneumoniae ATCC13883
Experimental: as §2

| SMILES | IC50 (P. aeruginosa LpxC) [nM] | IC50 (E. coli LpxC) [nM] | IC50 (K. pneumoniae LpxC) [nM] | MIC (P. aeruginosa ATCC27835) [µg/mL] | MIC (E. coli ATCC25922) [µg/mL] | MIC (P. aeruginosa 209 PAO1) [µg/mL] | MIC (K. pneumoniae ATCC13883) [µg/mL] |
| --- | --- | --- | --- | --- | --- | --- | --- |
| COCC(N)COc1ccc(-c2ccc(C#C[C@@H](CO)n3ccnc3[C@H](C)O)cc2)cc1 (mixture of isomers) [Compound 3, (2S)-4-(4′-(2-amino-3-methoxypropoxy)-[1,1′-biphenyl]-4-yl)-2-(2-((S)-1-hydroxyethyl)-1H-imidazol-1-yl)but-3-yn-1-ol] | 15.1 | 1.5 | 2.2 | 2 (≈ 4.59 µM) | 2 (≈ 4.59 µM) | 1 (≈ 2.3 µM) | 4 (≈ 9.18 µM) |
| C[C@H](O)c1nccn1[C@@H](C#Cc1ccc(-c2ccc(O[C@H]3COC[C@@H]3O)cc2)cc1)CO (relative stereo) [Compound 10, (trans)-4-((4′-((S)-4-hydroxy-3-(2-((S)-1-hydroxyethyl)-1H-imidazol-1-yl)but-1-yn-1-yl)-[1,1′-biphenyl]-4-yl)oxy)tetrahydrofuran-3-ol] | 5.1 | < 0.5 | 0.9 | 2 (≈ 4.6 µM) |  | 1 (≈ 2.3 µM) | 2 (≈ 4.6 µM) |
| C[C@H](O)c1nccn1[C@@H](C#Cc1ccc(-c2ccc(O[C@H]3COC[C@@H]3N)cc2)cc1)CO (relative stereo) [Compound 15, (S)-4-(4′-(((trans)-4-aminotetrahydrofuran-3-yl)oxy)-[1,1′-biphenyl]-4-yl)-2-(2-((S)-1-hydroxyethyl)-1H-imidazol-1-yl)but-3-yn-1-ol] | 9.8 | 1 | 1.6 | 2 (≈ 4.61 µM) |  | 0.5 (≈ 1.15 µM) | 1 (≈ 2.31 µM) |
| C[C@H](O)c1nccn1[C@@H](C#Cc1ccc(-c2ccc(O[C@H]3COC[C@@H]3O)cc2)cc1)CN (relative stereo) [Compound 24, (trans)-4-((4′-((S)-4-amino-3-(2-((S)-1-hydroxyethyl)-1H-imidazol-1-yl)but-1-yn-1-yl)-[1,1′-biphenyl]-4-yl)oxy)tetrahydrofuran-3-ol] | 42.9 | 1.9 | 4.1 | 4 (≈ 9.23 µM) |  | 2 (≈ 4.61 µM) | 4 (≈ 9.23 µM) |
| C[C@H](O)c1nccn1[C@@H](C#Cc1ccc(-c2ccc(OC[C@@H](O)CO)cc2)cc1)CO [Compound 8, (S)-3-((4′-((S)-4-hydroxy-3-(2-((S)-1-hydroxyethyl)-1H-imidazol-1-yl)but-1-yn-1-yl)-[1,1′-biphenyl]-4-yl)oxy)propane-1,2-diol] | 9.6 | 1 | 1.9 | 2 (≈ 4.73 µM) |  | 2 (≈ 4.73 µM) | 4 (≈ 9.47 µM) |
| C[C@H](O)c1nccn1[C@@H](C#Cc1ccc(-c2ccc(OCC(CO)CO)cc2)cc1)CO [Compound 11, 2-(((4′-((S)-4-hydroxy-3-(2-((S)-1-hydroxyethyl)-1H-imidazol-1-yl)but-1-yn-1-yl)-[1,1′-biphenyl]-4-yl)oxy)methyl)propane-1,3-diol] | 6.6 | 1 | 1.8 | 4 (≈ 9.16 µM) |  | 2 (≈ 4.58 µM) | 8 (≈ 18.3 µM) |
| COC[C@@H](O)COc1ccc(-c2ccc(C#C[C@@H](CO)n3ccnc3[C@H](C)O)cc2)cc1 [Compound 14, (S)-4-(4′-((R)-2-hydroxy-3-methoxypropoxy)-[1,1′-biphenyl]-4-yl)-2-(2-((S)-1-hydroxyethyl)-1H-imidazol-1-yl)but-3-yn-1-ol] | 6.4 | < 0.5 | 0.9 | 2 (≈ 4.58 µM) |  | 1 (≈ 2.29 µM) | 2 (≈ 4.58 µM) |
| C[C@H](O)c1nccn1CC#Cc1ccc(-c2ccc(C3CC(NCCC#N)C3)cc2)cc1 (stereo partly drawn) [Compound 18, (S)-3-((3-(4′-(3-(2-(1-hydroxyethyl)-1H-imidazol-1-yl)prop-1-yn-1-yl)-[1,1′-biphenyl]-4-yl)cyclobutyl)amino)propanenitrile] | 8.6 | < 0.5 | 0.6 | 2 (≈ 4.71 µM) |  | 2 (≈ 4.71 µM) | 0.25 (≈ 0.589 µM) |
| C[C@H](O)c1nccn1CC#Cc1ccc(-c2ccc(C3CC(NCCO)C3)cc2)cc1 (stereo partly drawn) [Compound 19, (S)-2-((3-(4′-(3-(2-(1-hydroxyethyl)-1H-imidazol-1-yl)prop-1-yn-1-yl)-[1,1′-biphenyl]-4-yl)cyclobutyl)amino)ethan-1-ol] | 15.9 | < 0.5 | 0.7 | 4 (≈ 9.63 µM) |  | 4 (≈ 9.63 µM) | 1 (≈ 2.41 µM) |
| C[C@H](O)c1nccn1CC#Cc1ccc(-c2ccc(C3CC(NC4COC4)C3)cc2)cc1 (stereo partly drawn) [Compound 20, (S)-1-(1-(3-(4′-(3-(oxetan-3-ylamino)cyclobutyl)-[1,1′-biphenyl]-4-yl)prop-2-yn-1-yl)-1H-imidazol-2-yl)ethan-1-ol] | 11.8 | < 0.5 | 0.7 | 4 (≈ 9.36 µM) |  | 4 (≈ 9.36 µM) | 0.5 (≈ 1.17 µM) |
| C[C@H](O)c1nccn1CC#Cc1ccc(-c2ccc(C3CN(C(=O)CO)C3)cc2)cc1 [Compound 21, (S)-2-hydroxy-1-(3-(4′-(3-(2-(1-hydroxyethyl)-1H-imidazol-1-yl)prop-1-yn-1-yl)-[1,1′-biphenyl]-4-yl)azetidin-1-yl)ethan-1-one] | 12.6 | < 0.5 | 0.7 | 4 (≈ 9.63 µM) |  | 4 (≈ 9.63 µM) | 1 (≈ 2.41 µM) |
| C[C@H](O)c1nccn1[C@@H](C#Cc1ccc(-c2ccc(OCC(O)CCCO)cc2)cc1)CO (stereo partly drawn) [Compound 23, 5-((4′-((S)-4-hydroxy-3-(2-((S)-1-hydroxyethyl)-1H-imidazol-1-yl)but-1-yn-1-yl)-[1,1′-biphenyl]-4-yl)oxy)pentane-1,4-diol] | 7.8 | 0.5 | 1 | 2 (≈ 4.44 µM) |  | 2 (≈ 4.44 µM) | 2 (≈ 4.44 µM) |
